Key:
[1] = tested on: mice; test: Phase 1 maximum tolerated dose (MTD) determination in mice; assay type: in vivo; conditions: male mice; oral gavage; 1,000 mg/kg
Method: (§1) Male mice were randomized and assessed in two phases: 1) for maximum tolerated doses (MTDs) of PrC-210, DzCH2SH, and 2Pip-2PrSH to determine dose levels for the efficacy study and 2) to evaluate the efficacy of the compounds when administered 60±5 minutes prior to exposure to total body irradiation (TBI) at an LD100/30 dose (990 cGy) (Tables 1 and 2).
(§2) For Phase 1 or 2, sterile water (vehicle), PrC-210, DzCH2SH, and 2Pip2PrSH were administered at 10 mL/kg calculated based on the most recent body weight via oral gavage. Animals were not fasted prior to administration of the compounds or vehicle. Mice in Phase 1 were administered the dose on Day 1 and mice in Phase 2 were administered the dose 60±5 minutes prior to TBI on Day 0.
(§3) All surviving animals were observed once daily for clinical signs (e.g., unusually low or high activity, lethargy, shivering, appearance of fur, bloody and water stool, and other symptoms of moribundity) at 1-2 hours post-irradiation and/or post-dose and once daily on non-dosing days until Day 4 (Phase 1) or Day 30 (Phase 2).
In Phase 1 (Table 1), all animals were normal when observed and all body weights were within normal range. The dose level of 1000 mg/kg was selected for Phase 2.

[2] = tested on: mice exposed to total body irradiation (TBI); test: Phase 2 efficacy: survival of mice dosed before total body irradiation (TBI) at LD100/30; assay type: in vivo; conditions: for survival compared to vehicle (Group 13) by Chi-square test / survival compared to vehicle (Group 13) by Log-rank (Mantel-Cox) test / number of animals survived until scheduled sacrifice (Day 30) / number of mice moribund sacrificed / number of mice found dead: 1000 mg/kg oral gavage before TBI 9.9 Gy; for Survival: Day 30, 11 animals; for Survival / median survival time: male mice, 1000 mg/kg oral gavage 60±5 min before TBI 9.9 Gy (LD100/30); for body weight gain on Days 5 to 9: compared to the vehicle group (Group 13); for number of animals survived until scheduled sacrifice (Day 30) / number of mice moribund sacrificed / number of mice found dead: of 11 mice; for survival of animals through 30 days post exposure: treated prior to total body irradiation (LD100/30)
Method: as §1, §2
Irradiation was administered once to the whole body. TBI of mice were performed using a 6 MV LINAC photon source (TrueBeam STx source). Animals were irradiated at a dose rate of up to 80 cGy/min to the midline of the animals. The source irradiated animals to 50% of the dose from anterior-posterior direction and […] from the posterior-anterior direction. Dose measurements were performed with a PTW 31010 0.1 cc Semiflex Ion chamber.
as §3
In Phase 2 (Table 2), survival curves of mice treated with vehicle, PrC-210, DzCH2SH or 2Pip-PrSH prior to TBI with 9.9 Gy were measured (FIG. 1). […] Five mice were moribund sacrificed, and 6 mice were found dead. Survival in the Group 13 animals was 0% and median survival time was 8 days. In mice administered with PrC-210 before TBI (Group 14), 4 animals survived until scheduled sacrifice (Day 30) while 7 mice were moribund sacrificed. […] In mice administered with DzCH2SH before TBI (Group 15), 3 animals survived until scheduled sacrifice (Day 30) while 7 mice were moribund sacrificed, and one mouse was found dead. […] Five mice were moribund sacrificed and six mice were found dead. Survival in the Group 16 mice was 0% and median survival time was 10 days.

[3] = Hygroscopicity on 10 minute exposure to the atmosphere; assay type: physicochemical; conditions: 10 minute exposure of a small amount to the atmosphere; diHCl salt
Method: In Reaction E: 48 ml of HCl in methanol, 6 eq. (1.25 M solution, Aldrich #17935) was added to a solution of compound V, 3.5 g, 0.010 moles dissolved in 10 ml dry methanol in a flask under argon and equipped for magnetic stirring and the reaction was stirred at room temperature for 24 hours. […] The solution was degassed by gently bubbling argon into the solution for 30 minutes. Concentration (rotary evaporator at ambient temperature) provided a crude oily residue which was triturated with hexane producing a white solid. The hexane was removed (via pipette suction) and replaced with dry THF (25 ml). After an additional 10 minutes of trituration, the THF was removed and replaced with dry hexane (25 ml). After an additional 10 minutes of trituration, the hexane was removed and the resulting white solid was dried in vacuo over P2O5 providing 1.95 grams of diHCl salt of PrC-210 (88%). […]
In Reaction P: Compound XVI, 2.2 grams, 0.0058 moles was placed in a round-bottom flask equipped for magnetic stirring followed by 15 mL anhydrous trifluoroacetic acid (CF3COOH, Aldrich #8.08260). The flask was fitted with a condenser and the solution was refluxed for 5 hours whereupon it was determined that the reaction was complete using TLC by observing the disappearance of starting material and the appearance of a highly polar product, which stained positive with ninhydrin. […]

[4] = tested on: mice exposed to radiation; test: Protection of mice from lethal radiation (8 Gy, LD100); assay type: in vivo; conditions: oral gavage 15-90 minutes prior to 8 Gy (LD100), 60 days post irradiation
Method: The radioprotective efficacy of the thiols, prodrugs and double prodrugs according to this disclosure is assessed in mice. The compounds of the disclosure are administered via oral gavage to mice, and are compared to mice that have been administered 3-(methylamino)-2-(methylaminomethyl)propane-1-thiol (PrC-210), as well as to a control group or mice that are administered vehicle (i.e., containing no radioprotective additive).
More specifically, mice are assigned to three groups (Groups 1, 2 and 3). A control group, Group 1, is treated via oral gavage with vehicle (Lactated Ringer's and 5% dextrose, adjusted to pH 7.3 with sodium bicarbonate) 15-90 minutes prior to a dose of 8 Gy (LD100) radiation. Group 2 is treated via oral gavage with PrC-210, as a positive control, dissolved in Lactated Ringer's at a dose of 200 mg/kg 15-90 minutes prior to irradiation with 8 Gy (LD100). Group 3 is treated via oral gavage with compound 1 (PrC-210-PT) dissolved in Lactated Ringer's at a dose of 308 mg/kg 15-90 minutes prior to irradiation with 8 Gy (LD100). The mortality of the three groups is assessed for 60 days post irradiation. The experiment is repeated with doses of PrC-210 ranging from 200 mg/kg to 450 mg/kg. Molar equivalent dosages of the test compound (compound 1, Prc-210-PT) to PrC-210 are also assessed.
The experiment is repeated to assess the efficacy of compounds 2-23 as radioprotectors.

[5] = tested on: mice exposed to whole body irradiation; test: Radiation LD50 in mice after whole body irradiation; assay type: in vivo; conditions: oral gavage 60 minutes prior to whole body irradiation 2-12 Gy, 30 days
Method: The affect of the compounds according to the disclosure on the dose of radiation required to kill 50% of mice (LD50) is assessed.
Mice are assigned to three groups (Groups 1, 2 and 3). A control group, Group 1, is treated via oral gavage with vehicle (Lactated Ringer's and 5% dextrose, adjusted to pH 7.3 with sodium bicarbonate) 60 minutes prior to whole body irradiation (2 Gy). Group 2 is treated via oral gavage with PrC-210, as a positive control, dissolved in Lactated Ringer's at a dose of 200 mg/kg 60 minutes prior to whole body irradiaton (2 Gy). Group 3 is treated via oral gavage with compound 1 (PrC-210-PT) dissolved in Lactated Ringer's at a dose of 308 mg/kg 60 minutes prior to whole body irradiation (2 Gy). The mortality of the three groups is assessed for 30 days post irradiation.
The experiment is repeated using varying radiation doses of 4, 6, 8, 10 and 12 Gy. The LD50 for each group was determined.
The experiment is repeated to assess compounds 2-23 as radioprotectors.

[6] = cited from earlier work
[7] = after 1000 mg/kg oral gavage and TBI 9.9 Gy
[8] = after 1000 mg/kg oral gavage and TBI 9.9 Gy, 11 per group

Compound | toxicity at the highest tested dose [1] | survival compared to vehicle (Group 13) by Chi-square test [2] | survival compared to vehicle (Group 13) by Log-rank (Mantel-Cox) test [2] | Survival [2] | number of animals with eye discharge [2, 8] | number of animals with hypoactivity [2, 8] | number of animals with swollen eye [2, 8] | body weight gain on Days 5 to 9 [2, 7] | median survival time [2] | number of animals survived until scheduled sacrifice (Day 30) [2] | number of mice moribund sacrificed [2] | survival of animals through 30 days post exposure [2] | hygroscopicity [3] | number of animals with cold to touch skin [2, 8] | number of mice with lethargy [2, 8] | number of mice with swollen head [2, 8] | number of mice found dead [2] | further results
CNCC(CS)CNC [PrC-210, 3-(methylamino)-2-((methylamino)methyl)propane-1-thiol, reference compound] | did not produce any toxicity | statistically significantly higher | statistically significantly higher | 36.4% | one | 5 | one | significantly higher | 11 days | 4 | 7 | increased survival | did not show any signs of hygroscopicity | – | – | – | – | mean body weight on Day 9 versus Groups 13, 15 and 16 [2, 7]: higher; number of mice with tremor [2, 8]: 4; rate of survival versus control group [4]: control group demonstrates a reduced rate of survival compared to the mice treated with; radiation LD50 versus control group [5]: control group demonstrates a lower LD50 compared to the mice treated with; radioprotective properties ([6]; administered topically and orally in preclinical studies): demonstrated radioprotective properties; side effects ([6]; compared with Amifostine): less side effects than Amifostine
SCC1CNCCNC1 [Compound 22, (1,4-diazepan-6-yl)methanethiol] | did not produce any toxicity | – | statistically significantly higher | 27.3% | 2 | 5 | 2 | did not gain body weights | 11 days | 3 | 7 | increased survival | did not show any signs of hygroscopicity | one | one | one | one | mortality rate at 8-days post-irradiation ([2]; 1000 mg/kg oral gavage before TBI): efficacious effects; number of animals with eye cloudy [2, 8]: 2; number of animals with sunken eye [2, 8]: 1; number of mice with eye opacity [2, 8]: one; number of mice with labored breathing [2, 8]: one
NCCCNCCSP(=O)(O)O [Amifostine, amifostine] | – | – | – | – | – | – | – | – | – | – | – | – | – | – | – | – | – | efficacy as a radioprotector ([6]; administered orally): lacks efficacy
CC(C)(S)C1CNCCN1 (centres unmarked) [Compound 2Pip-2PrSH, 2-(piperazin-2-yl)propane-2-thiol] | did not produce any toxicity | not statistically significantly different | statistically significantly higher | 0% | one | 5 | one | did not gain body weights | 10 days | no animals survived | Five | – | – | 4 | one | one | six | –

— patent publication US20230174562A1, “RADIO-AND CHEMO-PROTECTIVE COMPOUNDS” (TONIX PHARMACEUTICALS, INC., priority 2020, published 2023)
